Data taken from the NIST ThermoML archive (doi:10.1016/j.fluid.2015.10.016).
Numbers after ± are expanded uncertainties.

How the values were obtained:
[1] = Crystal; DTA
[2] = Molar enthalpy of transition or fusion; conditions: Crystal; DSC

With CCCC[N+]1(C)CCCC1.N#C[B-](C#N)(C#N)C#N [1-butyl-1-methylpyrrolidinium tetracyanoborate] the Normal melting temperature [1] was 19.7 ± 0.4 °C and the “Molar enthalpy of transition or fusion” value [2] was 4.97 ± 0.117 kcal/mol.
In the case of CCCC[N+]1(C)CCCC1.N#CC(=C=[N-])C#N [1-butyl-1-methylpyrrolidinium tricyanomethanide], the Normal melting temperature [1] is reported as -8.8 ± 0.4 °C and the “Molar enthalpy of transition or fusion” value [2] is reported as 2.25 ± 0.0789 kcal/mol.
In the case of CCCC[N+]1(C)CCCC1.O=S(=O)([O-])C(F)(F)F [1-butyl-1-methylpyrrolidinium trifluoromethanesulfonate], the Normal melting temperature [1] is reported as -0.2 ± 0.4 °C and the “Molar enthalpy of transition or fusion” value [2] is reported as 2.88 ± 0.0908 kcal/mol.
In the case of OCCc1ccccc1 [2-phenylethanol], the Normal melting temperature [1] is reported as -27 ± 1 °C and the “Molar enthalpy of transition or fusion” value [2] is reported as 2.31 ± 0.0956 kcal/mol.
